Results published in paper PMC7287031 (Pharmacology Research & Perspectives, 2020).

What was measured:
[1] = Human ADME study: mass balance, excretion of radioactivity in urine and feces; assay type: in vivo; conditions: for radioactive dose excreted in urine: N=6, after 504 hours, mean; for Cumulative excretion of radioactivity, Total (urine and feces, mean) / Cumulative excretion of radioactivity, Urine (mean): single oral dose 600 mg, healthy male volunteers, n=6
Protocol: This single‐center, open‐label, single oral dose study enrolled six healthy, non‐smoking, male Caucasian volunteers who were determined as being in good health according to their medical history, physical examination, vital signs, electrocardiogram, laboratory tests, and urinalysis. Healthy male volunteers were selected as the foundation of the extensive human ADME data should be based on a small cohort (6) of young healthy male volunteers with subsequent extension/bridging to actual patients as needed for the investigation of variables such as age, gender, ethnicity, and health on the metabolic profile. Subjects with relevant radiation exposure of > 0.2 mSv in the 12 months prior to the initiation of the study were excluded. […] The study protocol and dosimetry calculations were reviewed by the Independent Ethics Committee for the center, and written informed consent was obtained from all subjects before entering the study.
Subjects continued to fast for 4 hours after drug administration.
Radioactivity contents in urine and feces homogenates were determined at the bioanalytical laboratory of PRA International, Zuidlaren, the Netherlands. For urine, duplicate (1000 µL) aliquots were placed into 7‐mL glass vials (Perkin Elmer), after which 5 mL of scintillation cocktail (Ultima Gold™, Perkin Elmer) was added. After vortex mixing for 5 seconds, each sample was placed in a Tri‐Carb™ 3100 TR liquid scintillation analyzer (Perkin Elmer, Waltham, MA, USA) 30 minutes before counting. The total [^14C]‐radioactivity of the samples was determined by counting until a statistical error (two standard deviations) of 0.5% was obtained with a counting time of 10 or 30 minutes, depending on the level of radioactivity.
For feces homogenates, quadruplicate, accurately weighed (500 mg) aliquots were dried in a stove at 50 °C for 3 hours. […] The absorber agent for CO2 was 7‐mL Carbo‐Sorb® E (Perkin Elmer). At the end of the combustion cycle, the absorber was mixed with 13 mL of the scintillant Permafluor® E (Perkin Elmer). The samples were placed in the liquid scintillation analyzer for 60 minutes before counting. The total [^14C]‐radioactivity of the samples was determined by counting until a statistical error (2 s) of 0.5% was obtained with a counting time of 10 or 30 minutes, depending on the level of radioactivity.

[2] = Human ADME study: quantitative metabolite profiling in plasma; assay type: in vivo; conditions: human plasma pools n=6, from metabolite patterns
Protocol: A plasma pool across the six healthy volunteers included in the study was prepared at the time points of 1 hour, 3 hours, 24 hours, and 48 hours post dose. For each time point, an equal volume of plasma was taken from each subject and combined. Plasma pool samples were processed by protein precipitation with acetonitrile. The protein pellet that resulted from precipitation with acetonitrile was washed further with additional aliquots of acetonitrile. All acetonitrile washes were combined and evaporated under nitrogen. For the 3‐ and 24‐hour plasma pools, the extraction procedure was slightly modified, including precipitation of the plasma proteins by addition of a 1:1 mixture of acetonitrile:methanol, followed by washing of the protein pellet with the same solvent mixture. All extracts were reconstituted with a solution of 15‐mM ammonium formate and acetonitrile (95:5 v/v). Extraction and reconstitution recoveries were measured in all four plasma samples in order to calculate and overall recovery. Quantitative metabolite profiling in plasma was accomplished using a Shimadzu Prominence high‐performance liquid chromatography (HPLC) system (Shimadzu, Columbia, MD, USA), coupled with fraction collection and analysis of total radioactivity in individual fractions using AMS (as described above). A second injection of each sample, conducted immediately after the first, was used to provide HPLC fractions for metabolite identification. The fractions identified as containing radioactivity from the AMS analysis were analyzed by HPLC coupled with high‐resolution mass spectrometry to identify the metabolites. The HPLC‐MS/MS methodology used is described below.

Structure (SMILES): CN(C)C(=O)c1cc2cnc(Nc3ccc(N4CCNCC4)cn3)nc2n1C1CCCC1 [ribociclib, Ribociclib]
- radioactive dose excreted in urine ([1]; human, single oral 600 mg [14C]-ribociclib): 22.6%
- radioactive dose excreted in urine ([1]; human, single oral 600 mg [14C]-ribociclib, listed as [^14C]‐ribociclib): 22.6 ± 5.39%
- mass balance (total recovery of radioactivity) ([1]; human, single oral 600 mg [14C]-ribociclib, N=6, mean): 91.7 ± 1.01%
- Oral absorption (estimate) ([1]; human, radioactivity in urine plus radiolabeled metabolites in feces, assuming all formed systemically): approximately 58.8%
- Cumulative excretion of radioactivity, Total (urine and feces, mean) ([1]; time 0 h): 0 % of dose
- Cumulative excretion of radioactivity, Urine (mean) ([1]; time 0 h): 0 % of dose
- Cumulative excretion of radioactivity, Urine (mean) ([1]; time 6 h): 4.85 % of dose
- Cumulative excretion of radioactivity, Urine (mean) ([1]; time 12 h): 9.15 % of dose
- Cumulative excretion of radioactivity, Total (urine and feces, mean) ([1]; time 24 h): 17.2 % of dose
- Cumulative excretion of radioactivity, Urine (mean) ([1]; time 24 h): 12.9 % of dose
- Cumulative excretion of radioactivity, Total (urine and feces, mean) ([1]; time 48 h): 47.5 % of dose
- Cumulative excretion of radioactivity, Urine (mean) ([1]; time 48 h): 17.0 % of dose
- Cumulative excretion of radioactivity, Total (urine and feces, mean) ([1]; time 72 h): 63.9 % of dose
- Cumulative excretion of radioactivity, Urine (mean) ([1]; time 72 h): 19.0 % of dose
- Cumulative excretion of radioactivity, Total (urine and feces, mean) ([1]; time 96 h): 75.9 % of dose
- Cumulative excretion of radioactivity, Urine (mean) ([1]; time 96 h): 20.2 % of dose
- Cumulative excretion of radioactivity, Total (urine and feces, mean) ([1]; time 120 h): 79.7 % of dose
- Cumulative excretion of radioactivity, Urine (mean) ([1]; time 120 h): 20.9 % of dose
- Cumulative excretion of radioactivity, Total (urine and feces, mean) ([1]; time 144 h): 83.8 % of dose
- Cumulative excretion of radioactivity, Urine (mean) ([1]; time 144 h): 21.4 % of dose
- Cumulative excretion of radioactivity, Total (urine and feces, mean) ([1]; time 168 h): 86.7 % of dose
- Cumulative excretion of radioactivity, Urine (mean) ([1]; time 168 h): 21.8 % of dose
- Cumulative excretion of radioactivity, Total (urine and feces, mean) ([1]; time 216 h): 88.6 % of dose
- Cumulative excretion of radioactivity, Urine (mean) ([1]; time 216 h): 22.2 % of dose
- Cumulative excretion of radioactivity, Total (urine and feces, mean) ([1]; time 240 h): 89.1 % of dose
- Cumulative excretion of radioactivity, Urine (mean) ([1]; time 240 h): 22.3 % of dose
- Cumulative excretion of radioactivity, Total (urine and feces, mean) ([1]; time 264 h): 89.6 % of dose
- Cumulative excretion of radioactivity, Urine (mean) ([1]; time 264 h): 22.5 % of dose
- Cumulative excretion of radioactivity, Total (urine and feces, mean) ([1]; time 288 h): 90.3 % of dose
- Cumulative excretion of radioactivity, Urine (mean) ([1]; time 288 h): 22.5 % of dose
- Cumulative excretion of radioactivity, Total (urine and feces, mean) ([1]; time 336 h): 90.9 % of dose
- Cumulative excretion of radioactivity, Urine (mean) ([1]; time 336 h): 22.6 % of dose
- Cumulative excretion of radioactivity, Total (urine and feces, mean) ([1]; time 360 h): 91.1 % of dose
- Cumulative excretion of radioactivity, Urine (mean) ([1]; time 360 h): 22.6 % of dose
- Cumulative excretion of radioactivity, Total (urine and feces, mean) ([1]; time 384 h): 91.3 % of dose
- Cumulative excretion of radioactivity, Urine (mean) ([1]; time 384 h): 22.6 % of dose
- Cumulative excretion of radioactivity, Total (urine and feces, mean) ([1]; time 408 h): 91.4 % of dose
- Cumulative excretion of radioactivity, Urine (mean) ([1]; time 408 h): 22.6 % of dose
- Cumulative excretion of radioactivity, Total (urine and feces, mean) ([1]; time 432 h): 91.6 % of dose
- Cumulative excretion of radioactivity, Urine (mean) ([1]; time 432 h): 22.6 % of dose
- Cumulative excretion of radioactivity, Total (urine and feces, mean) ([1]; time 456 h): 91.6 % of dose
- Cumulative excretion of radioactivity, Urine (mean) ([1]; time 456 h): 22.6 % of dose
- Cumulative excretion of radioactivity, Total (urine and feces, mean) ([1]; time 480 h): 91.7 % of dose
- Cumulative excretion of radioactivity, Urine (mean) ([1]; time 480 h): 22.6 % of dose
- Cumulative excretion of radioactivity, Total (urine and feces, mean) ([1]; time 504 h): 91.7 % of dose
- Cumulative excretion of radioactivity, Urine (mean) ([1]; time 504 h): 22.6 % of dose
- AUC0-48h, % of total [14C]-AUC0-48 [2]: approximately 43.5%
- AUC0-48h, % of total [14C]-AUC0-48 ([2]; listed as Ribociclib): 43.5%
